According to ChEMBL document CHEMBL4421730, “Synthetic compounds and derivatives as modulators of smoking or nicotine ingestion and lung cancer” (2013):
The source made the active and inactive calls. No cut-off for these calls is given here.

Legend:
[1] = target: Acetylcholine-binding protein (Lymnaea stagnalis) (UniProt P58154); assay: Binding affinity to Lymnaea stagnalis nicotinic acetylcholine receptor by fluorescence based assay; type: single protein
Rattus norvegicus [2] = assay: Reduction of nicotine self-administration in nicotine-addicted Wistar rat at 16 mg/kg dosed on day 50 following self-administration of nicotine across 23 hrs period each day for 49 days and measured on day 51 and 52 relative to control; type: ADME, organism-based; conditions: in vivo
Cytochrome P450 2A6 [3] = target: T1, Cytochrome P450 2A6 (Homo sapiens, UniProt P11509); assay: Binding affinity to synthetic N-terminal truncated CYP2A6 (unknown origin) assessed as occurrence of type-1 binding by spectral interaction analysis
T1 sequence (P11509 whole entry): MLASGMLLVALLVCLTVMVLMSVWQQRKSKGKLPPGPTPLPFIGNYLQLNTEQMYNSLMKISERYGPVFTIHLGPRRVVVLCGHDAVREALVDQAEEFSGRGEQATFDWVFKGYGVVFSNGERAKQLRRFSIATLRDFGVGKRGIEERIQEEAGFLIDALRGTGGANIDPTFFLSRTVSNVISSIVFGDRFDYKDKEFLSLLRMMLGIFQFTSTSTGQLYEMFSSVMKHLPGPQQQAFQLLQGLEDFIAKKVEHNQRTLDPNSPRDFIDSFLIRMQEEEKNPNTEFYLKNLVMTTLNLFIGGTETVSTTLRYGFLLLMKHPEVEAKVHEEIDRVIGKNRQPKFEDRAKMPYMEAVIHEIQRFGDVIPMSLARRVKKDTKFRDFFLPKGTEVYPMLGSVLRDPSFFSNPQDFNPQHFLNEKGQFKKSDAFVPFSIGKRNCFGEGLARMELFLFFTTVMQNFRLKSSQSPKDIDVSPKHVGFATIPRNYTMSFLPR

[4] = target: Acetylcholine-binding protein (Lymnaea stagnalis) (UniProt P58154); assay: Displacement of [125I]bungarotoxin from Lymnaea stagnalis nicotinic acetylcholine receptor assessed as residual radioligand binding relative to control
Cytochrome P450 2A6 [5] = target: T1, Cytochrome P450 2A6; assay: Inhibition of human CYP2A6 expressed in insect cell membranes assessed as reduction in enzyme-mediated coumarin 7-hydroxylation at 400 uM in presence of glucose-6-phosphate, glucose-6-phosphate dehydrogenase and NADPH-generating system by fluorometry
Rattus norvegicus [6] = assay: Reduction of nicotine self-administration in nicotine-addicted Wistar rat at 15 mg/kg dosed on day 50 following self-administration of nicotine across 23 hrs period each day for 49 days relative to control; type: ADME, organism-based; set-up: scale not given: the % may be the effect or the level left; conditions: in vivo
Rattus norvegicus [7] = assay: Reduction of nicotine self-administration in nicotine-addicted Wistar rat at 15 mg/kg dosed on day 50 following self-administration of nicotine across 23 hrs period each day for 49 days and measured on day 51 and 52 relative to control; type: ADME, organism-based; conditions: in vivo
CYP2A6 [8] = target: T2, CYP2A6 (Homo sapiens, UniProt P11509); assay: (§1) Binding affinity to synthetic N-terminal truncated CYP2A6 (unknown origin) assessed as effect on type-1 spectral shift lambda(min) by measuring displacement of coumarin at 100 uM preincubated with […] coumarin by spectral interaction analysis; conditions: synthetic N-terminal truncated CYP2A6, probe coumarin, […]
T2 sequence (P11509 whole entry): T1 sequence (P11509 whole entry)

CYP2A6 [9] = target: T2, CYP2A6; assay: (§2) Binding affinity to synthetic N-terminal truncated CYP2A6 (unknown origin) assessed as effect on type-1 spectral shift lambda(max) by measuring displacement of coumarin at 100 uM preincubated with […] coumarin by spectral interaction analysis; conditions: synthetic N-terminal truncated CYP2A6, probe coumarin, […]
Cytochrome P450 2A6 [10] = target: T1, Cytochrome P450 2A6; assay: as §1; conditions: 100 µM
Cytochrome P450 2A6 [11] = target: T1, Cytochrome P450 2A6; assay: as §2; conditions: 100 µM

Acetylcholine-binding protein (Lymnaea stagnalis), sequence (P58154 whole entry): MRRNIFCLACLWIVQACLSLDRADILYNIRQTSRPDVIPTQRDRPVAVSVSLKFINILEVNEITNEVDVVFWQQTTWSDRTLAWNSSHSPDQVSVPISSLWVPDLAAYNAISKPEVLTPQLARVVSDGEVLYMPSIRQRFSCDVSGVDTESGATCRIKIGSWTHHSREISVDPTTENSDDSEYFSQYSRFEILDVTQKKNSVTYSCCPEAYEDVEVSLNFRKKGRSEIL

CCC1CCC(c2cccnc2)O1 (configuration not stated)
Activity [1]: inactive

Cl.Cl.NCc1ccc(-c2cccnc2)o1
Activity (Rattus norvegicus [2]): Toxic

c1cncc(-c2cccnc2)c1
Activity [1]: Active

c1ccc(-c2ccsc2)cc1
Activity (Cytochrome P450 2A6 [3]): Active

Cc1cscc1-c1cccnc1
Activity [1]: Active

NCC1CCC(c2cccnc2)O1 (mixture of isomers)
Activity [1]: Active | Activity [4]: 30%

CN(C)CC#Cc1cccnc1
Activity (Cytochrome P450 2A6 [3]): Not Active

NC[C@@H]1CC[C@@H](c2cccnc2)O1 (relative stereo)
Activity [1]: Active | Activity [4]: 25%

N[C@@H]1C[C@H]1c1ccccc1.N[C@H]1C[C@@H]1c1ccccc1
Activity [1]: Active

Cc1ccsc1-c1ccc(F)nc1
Activity (Cytochrome P450 2A6 [3]): Active

c1cncc(-c2cccs2)c1
Activity [1]: Active

c1cncc(-n2cnnn2)c1
inhibition (INH) (Cytochrome P450 2A6 [5]): Active

OCC1CCC(c2cccnc2)O1 (configuration not stated)
Activity [1]: inactive

Cc1csc(-c2cccnc2)n1
Activity (Cytochrome P450 2A6 [3]): Active

BrCC1CCC(c2cccnc2)O1 (configuration not stated)
Activity [1]: Active

Cc1cn(-c2cccnc2)cn1
Activity [1]: Active

Cl.Cl.c1cncc(-c2c[nH]cn2)c1
Activity [1]: inactive | Activity (Rattus norvegicus [6]): 40% | Activity (Rattus norvegicus [7]): Toxic

O=Cc1ccc(-c2cccnc2)o1
inhibition at 100 µM (CYP2A6 [8]): 100% | Activity (Cytochrome P450 2A6 [3]): Not Active | inhibition at 100 µM (CYP2A6 [9]): 100%

CC(=O)SCc1ccc(-c2cccnc2)o1
Activity (Cytochrome P450 2A6 [10]): Not Active | Activity (Cytochrome P450 2A6 [3]): Not Active | Activity (Cytochrome P450 2A6 [11]): Not Active

Cc1cscc1-c1ccccc1
Activity (Cytochrome P450 2A6 [3]): Active

Cc1ccsc1-c1cccnc1
Activity (Cytochrome P450 2A6 [3]): Active

SCc1ccc(-c2cccnc2)o1
inhibition at 100 µM (CYP2A6 [8]): 100% | Activity (Cytochrome P450 2A6 [3]): Not Active | inhibition at 100 µM (CYP2A6 [9]): 100%
